From ChEMBL document CHEMBL5370570, “HIV-1 Integrase Inhibitor, Dihydroobionin B, and the Investigation of Its Extraordinary Specific Rotation” (J Nat Prod, 2023)
The source made the active and inactive calls. The calls are words filed in the database; no cut-off is given here.

Tests used:
Bipolaris oryzae = test: Antifungal activity against Bipolaris oryzae at 50 ug assessed as zone of inhibition incubated after 5 days at 25 degreeC by paper disk method; format: functional; details: for zone of inhibition at 50 µg/disc: 120 h, time 5 day, read-out: IZ
[1] = biological target: Human immunodeficiency virus type 1 integrase (Human immunodeficiency virus 1, UniProt Q7ZJM1); test: Inhibition of HIV-1 integrase expressed in HEK293T co-transfected with CS-II Luci vector incubated for 48 hrs by Bright-Glo luciferase assay; format: cell-based
Human immunodeficiency virus type 1 integrase, sequence (Q7ZJM1 whole entry): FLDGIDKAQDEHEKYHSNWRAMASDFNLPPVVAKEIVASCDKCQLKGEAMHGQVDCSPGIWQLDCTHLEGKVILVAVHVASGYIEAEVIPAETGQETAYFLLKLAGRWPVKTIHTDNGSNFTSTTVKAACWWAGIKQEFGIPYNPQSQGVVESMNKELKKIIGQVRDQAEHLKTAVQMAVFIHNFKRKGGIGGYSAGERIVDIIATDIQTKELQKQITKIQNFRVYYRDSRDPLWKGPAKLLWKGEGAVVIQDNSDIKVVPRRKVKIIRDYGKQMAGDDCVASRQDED

[2] = Cytotoxicity against human HEK293T cells assessed as reduction in cell viability incubated for 48 hrs by WST assay; format: toxicity, cell-based, HEK-293T; details: read-out: LC50

Compound	zone of inhibition at 50 µg/disc (Bipolaris oryzae) [mm]	IC50 [1] [µM]	inhibition zone (IZ) (Bipolaris oryzae; dose 50.0 µg, time 5.0 day)	CC50 at 48 h [2] [µM]
CCCCCCc1c(OC)cc(=O)oc1C	12	15		
CCCCCCC[C@H]1Cc2cc3c(c(O)c2CO1)C(=O)C(=O)C(OC)=C3		0.44	inactive	> 250
CCCCCc1cc(O)c(C)c(O)c1C=O	12	13		
CCCC/C=C/c1c(OC)cc(=O)oc1C	12	250		
